The text below walks through data of patent publication US6849598B1, “Therapeutic compositions comprising bactericidal/permeability-increasing (BPI) protein products” (XOMA, priority 1995, dated 2005).

In brackets after ≈: the same amount, converted by molar mass. Like-named read-outs stand apart in the source and are kept apart here.

In assay [1] the test system is E. faecium. Description: Antibiotic susceptibility (MIC, Sensititre Trays) with rBPI21 poloxamer formulations. As to susceptibility interpretation of MIC (superscript): key: clinically resistant (R); intermediate (I); susceptible (S). The assay is classed as cell-based. To be noted: for MIC: Enterococcus faecium, read-out: Minimum Inhibitory Concentration.
Assay [2] concerns A. baumannii. Description: Bactericidal activity with heat-treated PLURONIC P104 in serial 2-fold dilutions of serum. The assay is classed as cell-based. The note with it: formulated BPI protein product diluted with heat-treated PLURONIC P104 solution. The protocol:
Additional experiments were performed to test therapeutic compositions, prepared by diluting a variety of formulated BPI protein products with heat-treated PLURONIC P104 solution, and tested against A. baumannii in serial 2-fold dilutions of serum.

Where [3] appears, read: CSMHB, 16 μg/mL rBPI21 with F68.
[4] abbreviates: CSMHB, 16 μg/mL rBPI21 with P103.
[5] abbreviates: CSMHB, 16 μg/mL rBPI21 with P104.
[6] abbreviates: CSMHB, 16 μg/mL rBPI21 with P105.
The mark [7] stands for this setting: CSMHB, 16 μg/mL rBPI21 with P123.
Setting [8] is: Serum, 16 μg/mL rBPI21 with F68.
Setting [9] is: Serum, 16 μg/mL rBPI21 with P103.
[10] abbreviates: Serum, 16 μg/mL rBPI21 with P104.
Setting [11] is: Serum, 16 μg/mL rBPI21 with P105.
Setting [12] is: Serum, 16 μg/mL rBPI21 with P123.

With `O=C(N[C@H](CO)[C@H](O)c1ccc([N+](=O)[O-])cc1)C(Cl)Cl` [Chloramphenicol], the “susceptibility interpretation of MIC (superscript)” value in assay [1] (setting [3]) was “S”; in assay [1] (setting [4]), “S”; in assay [1] (setting [5]), “S”; in assay [1] (setting [6]), “S”; in assay [1] (setting [7]) it was “S”; in assay [1] (CSMHB, Control (no BPI)) it was “I”. Further, the “susceptibility interpretation of MIC (superscript)” value is on record as “S” in assay [1] (setting [8]); “S” in assay [1] (setting [9]); “S” in assay [1] (setting [10]); “S” in assay [1] (setting [11]); “S” in assay [1] (setting [12]); “S” in assay [1] (Serum, Control (no BPI)). The MIC in assay [1] (setting [3]) is < 4 µg/mL; in assay [1] (setting [4]), < 4 µg/mL; in assay [1] (setting [5]) it was < 4 µg/mL; in assay [1] (setting [6]), < 4 µg/mL; in assay [1] (setting [7]) it was < 4 µg/mL; in assay [1] (CSMHB, Control (no BPI)), 16 µg/mL (≈ 49.5 µM). The MIC turned out to be 8 µg/mL (≈ 24.8 µM) in assay [1] (setting [8]); 8 µg/mL (≈ 24.8 µM) in assay [1] (setting [9]); 8 µg/mL (≈ 24.8 µM) in assay [1] (setting [10]); 8 µg/mL (≈ 24.8 µM) in assay [1] (setting [11]); 8 µg/mL (≈ 24.8 µM) in assay [1] (setting [12]); 8 µg/mL (≈ 24.8 µM) in assay [1] (Serum, Control (no BPI)).

B1: rBPI21: expression product of DNA encoding amino acid 1 to approximately 193 or 199 of BPI holoprotein, cysteine 132 substituted with alanine (protein, UniProt P17213 32-224, looked up, variant C132A)
chain: VNPGVVVRISQKGLDYASQQGTAALQKELKRIKIPDYSDSFKIKHLGKGHYSFYSMDIREFQLPSSQISMVPNVGLKFSISNANIKISGKWKAQKRFLKMSGNFDLSIEGMSISADLKLGSNPTSGKPTITASSCSSHINSVHVHISKSKVGWLIQLFHKKIESALRNKMNSQVCEKVTNSVSSELQPYFQTL
On to B1, for which the “serum concentrations at which bactericidal activity was observed” value in assay [2] is given as ≤ 6.25%.
